Measured values reported in ChEMBL document CHEMBL4376879, “Fragment-to-Lead Medicinal Chemistry Publications in 2018” (J Med Chem, 2020).

How the values were obtained:
[1] = target: Beta-2 adrenergic receptor (Homo sapiens, UniProt P07550); test: Inhibition of beta2 adrenoreceptor (unknown origin)
[2] = target: T1, Glycylpeptide N-tetradecanoyltransferase 1 (Homo sapiens, UniProt P30419); test: Inhibition of human N-myristoyltransferase assessed as reduction in CoASH production by fluorogenic detection based assay
T1 sequence (P30419 whole entry): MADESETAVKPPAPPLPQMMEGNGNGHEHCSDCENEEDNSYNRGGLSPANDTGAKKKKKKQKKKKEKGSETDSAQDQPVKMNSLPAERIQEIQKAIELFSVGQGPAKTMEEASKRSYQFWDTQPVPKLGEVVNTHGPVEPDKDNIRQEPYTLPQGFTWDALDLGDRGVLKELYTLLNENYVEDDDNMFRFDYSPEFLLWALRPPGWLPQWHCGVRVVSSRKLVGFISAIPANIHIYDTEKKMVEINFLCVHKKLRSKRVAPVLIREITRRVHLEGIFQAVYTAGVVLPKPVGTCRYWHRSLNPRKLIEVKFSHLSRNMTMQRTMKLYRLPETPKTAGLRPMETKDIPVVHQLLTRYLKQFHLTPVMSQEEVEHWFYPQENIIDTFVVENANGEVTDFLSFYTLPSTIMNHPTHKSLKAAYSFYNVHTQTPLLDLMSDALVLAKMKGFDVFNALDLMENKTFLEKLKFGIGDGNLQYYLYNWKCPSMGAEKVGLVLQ

[3] = target: cAMP and cAMP-inhibited cGMP 3',5'-cyclic phosphodiesterase 10A (Homo sapiens, UniProt Q9Y233); test: Inhibition of human PDE10A2 using cAMP substrate by HTRF assay
Chain of cAMP and cAMP-inhibited cGMP 3',5'-cyclic phosphodiesterase 10A (Q9Y233 whole entry, the tested form may be a part): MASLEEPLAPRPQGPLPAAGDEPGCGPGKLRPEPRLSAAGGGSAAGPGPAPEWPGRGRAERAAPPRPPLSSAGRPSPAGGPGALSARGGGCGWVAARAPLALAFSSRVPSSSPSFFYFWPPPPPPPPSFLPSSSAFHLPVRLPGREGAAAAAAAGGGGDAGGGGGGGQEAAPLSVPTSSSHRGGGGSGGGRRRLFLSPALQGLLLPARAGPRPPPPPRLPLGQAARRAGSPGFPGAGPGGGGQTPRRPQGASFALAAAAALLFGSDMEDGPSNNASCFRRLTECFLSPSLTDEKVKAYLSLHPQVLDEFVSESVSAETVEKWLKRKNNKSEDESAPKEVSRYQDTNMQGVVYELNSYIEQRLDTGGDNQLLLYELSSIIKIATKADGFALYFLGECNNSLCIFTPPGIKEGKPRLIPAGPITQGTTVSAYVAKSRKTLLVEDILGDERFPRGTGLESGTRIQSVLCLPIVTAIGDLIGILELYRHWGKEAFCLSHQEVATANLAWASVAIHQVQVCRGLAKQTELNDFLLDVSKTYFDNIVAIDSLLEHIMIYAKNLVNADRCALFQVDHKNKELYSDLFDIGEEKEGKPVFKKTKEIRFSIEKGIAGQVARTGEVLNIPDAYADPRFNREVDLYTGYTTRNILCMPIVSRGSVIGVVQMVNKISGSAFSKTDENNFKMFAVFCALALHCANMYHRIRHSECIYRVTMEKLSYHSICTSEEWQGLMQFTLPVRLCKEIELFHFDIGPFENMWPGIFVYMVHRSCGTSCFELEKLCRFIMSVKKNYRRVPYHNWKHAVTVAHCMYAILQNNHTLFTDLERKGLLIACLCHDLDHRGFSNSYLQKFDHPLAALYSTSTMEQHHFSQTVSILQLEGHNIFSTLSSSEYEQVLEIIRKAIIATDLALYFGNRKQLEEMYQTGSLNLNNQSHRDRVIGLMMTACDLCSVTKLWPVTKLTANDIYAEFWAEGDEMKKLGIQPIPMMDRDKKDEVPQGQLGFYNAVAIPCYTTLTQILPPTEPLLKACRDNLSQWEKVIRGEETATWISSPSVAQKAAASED

[4] = target: GTPase HRas (Homo sapiens, UniProt P01112, G12V); test: Inhibition GST-tagged recombinant HRAS G12V mutant (1 to 166 amino acids) (unknown origin) expressed in Escherichia coli C41(DE3) by SPR assay
Chain of GTPase HRas (P01112 whole entry G12V, the tested form may be a part): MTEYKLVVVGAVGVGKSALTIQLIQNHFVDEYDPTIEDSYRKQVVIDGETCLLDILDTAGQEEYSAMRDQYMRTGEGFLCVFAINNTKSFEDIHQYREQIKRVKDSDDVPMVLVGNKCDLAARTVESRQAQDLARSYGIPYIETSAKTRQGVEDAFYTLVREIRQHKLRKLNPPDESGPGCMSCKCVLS

[5] = target: CREB-binding protein (Homo sapiens, UniProt Q92793); test: Binding affinity to Poly-Histidine-tagged CBP (unknown origin) expressed in Escherichia coli BL21(DE3) by competition binding assay
Chain of CREB-binding protein (Q92793 whole entry): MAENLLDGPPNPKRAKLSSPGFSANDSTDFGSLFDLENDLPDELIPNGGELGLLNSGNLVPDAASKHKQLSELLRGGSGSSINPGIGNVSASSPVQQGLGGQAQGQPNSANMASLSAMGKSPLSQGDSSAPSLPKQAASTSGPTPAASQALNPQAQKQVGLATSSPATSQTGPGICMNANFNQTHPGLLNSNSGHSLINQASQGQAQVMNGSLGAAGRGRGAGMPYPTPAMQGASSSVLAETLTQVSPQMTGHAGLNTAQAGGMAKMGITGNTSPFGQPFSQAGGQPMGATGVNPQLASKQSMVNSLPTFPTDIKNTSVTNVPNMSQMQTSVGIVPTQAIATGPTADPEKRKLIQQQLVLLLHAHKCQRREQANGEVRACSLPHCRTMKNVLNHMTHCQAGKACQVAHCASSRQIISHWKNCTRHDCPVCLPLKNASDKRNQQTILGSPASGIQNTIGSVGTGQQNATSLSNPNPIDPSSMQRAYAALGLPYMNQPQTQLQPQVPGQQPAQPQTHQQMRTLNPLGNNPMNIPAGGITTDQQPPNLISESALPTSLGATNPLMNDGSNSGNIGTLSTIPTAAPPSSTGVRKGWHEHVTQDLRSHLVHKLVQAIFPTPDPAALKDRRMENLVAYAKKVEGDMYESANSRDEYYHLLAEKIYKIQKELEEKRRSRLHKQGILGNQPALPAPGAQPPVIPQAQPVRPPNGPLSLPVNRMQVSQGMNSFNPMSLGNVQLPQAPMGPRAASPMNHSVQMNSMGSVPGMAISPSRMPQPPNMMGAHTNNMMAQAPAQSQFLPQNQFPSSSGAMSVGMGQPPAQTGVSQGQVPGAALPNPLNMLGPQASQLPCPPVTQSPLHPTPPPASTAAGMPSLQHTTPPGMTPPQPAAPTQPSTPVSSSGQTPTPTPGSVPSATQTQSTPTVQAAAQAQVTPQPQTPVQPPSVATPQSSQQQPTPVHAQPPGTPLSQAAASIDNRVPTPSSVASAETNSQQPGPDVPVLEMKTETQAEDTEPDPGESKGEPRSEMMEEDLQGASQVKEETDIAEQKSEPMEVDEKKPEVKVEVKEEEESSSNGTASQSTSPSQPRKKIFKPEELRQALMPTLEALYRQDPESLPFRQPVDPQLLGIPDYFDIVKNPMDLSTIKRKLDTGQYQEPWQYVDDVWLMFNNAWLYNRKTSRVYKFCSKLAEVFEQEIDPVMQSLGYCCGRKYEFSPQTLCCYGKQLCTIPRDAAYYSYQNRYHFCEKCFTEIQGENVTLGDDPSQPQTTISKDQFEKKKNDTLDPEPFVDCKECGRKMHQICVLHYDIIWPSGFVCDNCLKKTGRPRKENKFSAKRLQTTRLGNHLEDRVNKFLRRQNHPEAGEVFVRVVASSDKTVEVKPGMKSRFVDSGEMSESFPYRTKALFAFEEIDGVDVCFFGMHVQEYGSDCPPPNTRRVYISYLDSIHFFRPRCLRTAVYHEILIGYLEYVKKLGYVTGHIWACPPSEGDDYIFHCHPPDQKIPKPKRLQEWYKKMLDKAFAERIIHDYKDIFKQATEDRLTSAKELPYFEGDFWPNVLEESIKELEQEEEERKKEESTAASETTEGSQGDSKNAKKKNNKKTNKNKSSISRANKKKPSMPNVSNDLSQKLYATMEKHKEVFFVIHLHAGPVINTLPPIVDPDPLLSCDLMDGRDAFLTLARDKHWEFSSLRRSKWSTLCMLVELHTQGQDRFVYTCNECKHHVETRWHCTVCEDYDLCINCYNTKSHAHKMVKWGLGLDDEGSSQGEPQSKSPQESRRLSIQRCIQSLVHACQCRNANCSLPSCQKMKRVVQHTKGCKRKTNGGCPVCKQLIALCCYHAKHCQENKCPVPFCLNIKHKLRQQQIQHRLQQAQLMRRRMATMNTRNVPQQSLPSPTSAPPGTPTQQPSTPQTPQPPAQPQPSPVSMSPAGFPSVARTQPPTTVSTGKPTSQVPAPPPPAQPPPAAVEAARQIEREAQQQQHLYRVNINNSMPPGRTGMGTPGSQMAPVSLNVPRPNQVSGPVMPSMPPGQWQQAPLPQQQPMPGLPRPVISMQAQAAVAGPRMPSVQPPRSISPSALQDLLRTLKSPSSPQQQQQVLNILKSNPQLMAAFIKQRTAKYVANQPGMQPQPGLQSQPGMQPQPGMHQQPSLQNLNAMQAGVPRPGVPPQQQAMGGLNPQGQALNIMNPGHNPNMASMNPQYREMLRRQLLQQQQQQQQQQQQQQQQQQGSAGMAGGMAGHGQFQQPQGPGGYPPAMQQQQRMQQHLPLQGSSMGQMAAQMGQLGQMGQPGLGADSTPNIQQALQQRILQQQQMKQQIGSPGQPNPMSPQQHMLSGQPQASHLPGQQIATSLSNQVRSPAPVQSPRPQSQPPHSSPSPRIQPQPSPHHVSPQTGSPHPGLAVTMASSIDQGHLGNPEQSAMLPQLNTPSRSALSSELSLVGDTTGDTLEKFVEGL

Chain of Beta-2 adrenergic receptor (P07550 whole entry): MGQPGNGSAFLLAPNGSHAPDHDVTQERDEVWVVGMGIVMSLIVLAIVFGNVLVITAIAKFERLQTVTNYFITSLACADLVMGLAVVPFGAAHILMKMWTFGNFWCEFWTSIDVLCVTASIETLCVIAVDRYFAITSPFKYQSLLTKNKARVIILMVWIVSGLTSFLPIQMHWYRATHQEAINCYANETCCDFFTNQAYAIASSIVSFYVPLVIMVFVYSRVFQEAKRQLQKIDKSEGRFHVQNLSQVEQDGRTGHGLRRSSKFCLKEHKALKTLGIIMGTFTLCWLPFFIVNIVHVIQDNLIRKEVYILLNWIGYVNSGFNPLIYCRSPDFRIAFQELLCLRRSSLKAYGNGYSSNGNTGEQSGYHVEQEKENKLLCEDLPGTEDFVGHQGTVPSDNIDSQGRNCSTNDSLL

`NCc1ccc(-c2ncccn2)cc1` gave an IC50 [1] of 10 µM.
With `Cc1nn(C)c(C)c1CCOc1c(-c2ccc3c(c2)c(CN(C)C)nn3C)ccc(F)c1F` the IC50 [2] was < 0.001 µM.
`Cc1cc2nccc(-c3ccc(Cl)cc3)n2n1` was tested, and the IC50 [3] was < 10 µM.
`COc1nc(-c2cccc3c2OCCO3)ccc1Nc1ccc(CN(C)C)cc1` gave a Kd [4] of 0.051 µM.
`CCOc1ccc(C(C)=O)cc1N` gave a Kd [5] of 53 µM.
With `Clc1ccc(CNCc2ccc(-c3ncccn3)cc2)cc1Cl` the IC50 [1] was < 0.001 µM.
With `O=C(Nc1ccc2ccccc2n1)c1ccco1` the Kd [4] was > 370 µM.
